From US20100137206A1, “NOVEL LIGAND GUIDED BLOCK COPOLYMERS FOR TARGETED DRUG DELIVERY” (priority 2006, published 2010) come the findings set out here.

Where two headings read alike, the source gives them in different places.

The assay relates to B16-F10 cells. Put plainly: MTT cytotoxicity of DOX-containing micelles. The conditions noted are these: for IC50: read-out: IC50 (μM) of DOX equivalent. It counts as cell-based. As to the method: Briefly, 4000 cells were plated in 96-well plates and incubated for 24 h to allow the cells to attach. […] Living cells metabolize MTT to a dark formazan dye. The cell culture media was removed by aspiration and replaced with 200 μL DMSO. The absorbance was measured spectrophotometrically using a microplate reader at dual wavelengths of 570 nm and 650 nm. The data reported represent the means of triplicate measurement.

`COc1cccc2c1C(=O)c1c(O)c3c(c(O)c1C2=O)C[C@@](O)(C(=O)CO)C[C@@H]3O[C@H]1C[C@H](N)[C@H](O)[C@H](C)O1` [Free DOX, doxorubicin, reference compound]: the IC50 was found to be 0.417 µM (24 h incubation) and 0.204 µM (48 h incubation).

With “doxorubicin-conjugated acetal polyethylene oxide)-block-poly(caprolactone) [Acetal-PEO-b-PCL(DOX)]”, for the setting “24 h incubation”, the “fold difference of IC50 in comparison to free DOX” value is reported as 14.3 fold and the 50% inhibitory concentration (IC50) was determined as 5.95 µM. Moreover, where the note is “48 h incubation”, the “fold difference of IC50 in comparison to free DOX” value was 6.3 fold and the concentration for half-maximal inhibition (IC50) was found to be 1.28 µM.

The IC50 is the midpoint of a concentration-inhibition curve.
